Reference: PMC6222847, “Application of HPCCC Combined with Polymeric Resins and HPLC for the Separation of Cyclic Lipopeptides Muscotoxins A–C and Their Antimicrobial Activity” (Molecules : A Journal of Synthetic Chemistry and Natural …, 2018)
Converted amounts (≈) assume the structure as drawn. *1 amine or outer side, *2 acyl side, *3 side chain or, on linkers, in order; H or OH if unused. Where a SMILES comes first, the peptide text is derived from it. [ ]: non-standard residue; d: D form. X1 = CCCCCC(O)CC(N[*:1])C(O)C(=O)[*:2]; d(aIle) = CC[C@H](C)[C@@H](N)C(=O)O; Dhb = C/C=C(\N)C(=O)O

How the values were obtained:
[1] = Partition coefficient (K) in two-phase HPCCC solvent systems; format: physicochemical; conditions: 2 mg extract in 2 mL (1 mL per phase), HPLC-ESI-HRMS
From the text: When working with HPCCC, the search for a proper two-phase solvent system has been informed to represent the major part of the work involved in the HPCCC separation. An appropriate two-phase solvent system for HPCCC has to provide a good partition coefficient (0.5 ≤ K ≤ 2.5) for the target compound. […] Additionally, for achieving a good resolution between two closely eluting peaks, the separation factor (α) between the two compounds (α = K2/K1, K2 > K1) should be greater than 1.5 [14, 26]. It is well described that compounds with smaller K values show a poor resolution because they elute closer to the solvent front. On the contrary, those compounds with larger K value are better separated but elute as wider peaks and at later elution times. In the present study, the capacity of different two-phase solvent systems (Table 1) to provide suitable K values of the compounds 1–3 was investigated. The K value is frequently estimated by using HPLC with UV detection, which is calculated by dividing the peak area of the target compound in the upper phase by that of the peak area of the same target compound in the lower phase. However, given that UV chromatogram provided insufficient peak areas for minor muscotoxins, the MS detector was thus used to estimate the K values. By using this approach, the peak area of the molecular ions corresponding to the target compounds were selectively monitored from the base peak chromatogram. As presented in the Table 1, the solvent system 10 (n-hexane, ethyl acetate, ethanol, and water in a ratio of 1:5:1:5) gave suitable K values and a proper separation factor (α) for compounds 2 and 3, as well as a short settling time. […] The improvement of the K value of compound 1 could be achieved by finding out a new solvent system or by modifying the composition of the already selected solvent system. In the present study, the system 10 was acidified by adding acetic acid leading to the system 11 (n-hexane, ethyl acetate, ethanol, water, and acetic acid, 1:5:1:5:1). […] Although the partition coefficients of the target compounds in systems 10 and 11 are strongly correlated, the system 10 ensured a sufficient selectivity (α = 1.5) between the compounds 2 and 3. […] In HPCCC, it is very well established that when the retention of stationary phase is increased, a good chromatographic resolution is achieved. A reduced flow rate of the mobile phase and a high rotational speed of the column favor the retention of the stationary phase inside the HPCCC column. In this study, the flow rate of the mobile phase in the first step and second step of the HPCCC operations was 1 mL/min and the rotational speed was set at 1200 rpm. Moreover, it was observed that a good resolution between the compounds 2 and 3 was achieved when injecting 100 mg of enriched extract.
Different two-phase solvent systems were prepared using n-hexane, ethyl acetate, ethanol, water, and acetic acid in different proportions (Table 1). The prepared solvent systems were investigated for their capacity to provide suitable partition coefficients (K) of the target compounds. In addition, given that the settling time as well as the density difference between the upper and lower phases of each two-phase solvent system are parameters associated with the retention of stationary phase in the column, they were thus estimated and used as selection criteria. For estimating the partition coefficient (Table 1) of the target compound, 2 mg of extract containing the target compounds was dissolved in 2 mL of a given two-phase solvent system (1 mL per each phase). The test tube containing the sample solution was shaken vigorously, and then left, to equilibrate the two phases, for 20 min. Equal volumes of each phase were then analyzed by HPLC-ESI-HRMS to obtain the partition coefficients (K), which were calculated by dividing the peak area of the target compound in the upper phase by the peak area of compound in the lower phase.

Bacillus subtilis = experiment: Broth two-fold microdilution; format: cell-based; conditions: B. subtilis CCM1999; Mueller Hinton broth, 300–0.0732 µg/mL (control 32–0.0625), 37 °C 16 h, triplicate; MIC = least concentration showing any inhibition in the growth
Method: Furthermore, compound 1 was evaluated for its antimicrobial activity against five bacterial isolates; S. aureus (CCM3824), B. subtilis (CCM1999), S. sanguinis (CCM4047), P. aeruginosa (CCM1959), E. coli (CCM2024), and eight fungal isolates; C. friedrichii (BCC020_2879), A. fumigatus (BCC020_2845), F. oxysporum (BCC020_2866), T. harzianum (BCC020_0606), B. sorokiniana (BCC020_1571), M. cucumerina (BCC020_2872), C. globosum (BCC020_2527), and A. alternata (BCC020_0609) using broth two-fold microdilution method following the standard protocol. Briefly, for broth microdilution method, the compounds were serially diluted at varying concentrations between 300 and 0.0732 µg/mL in Mueller Hinton broth (for bacteria) and Muller Hinton broth with 2% glucose (for fungi) in 96-well plates. Culture broth (0.1 mL) was added to each well containing the compound. […] MIC95 was determined as the concentration required to inhibit or kill 95% of bacterial isolates spectroscopically at 600 nm. Minimum fungicidal concentration (MFCs) were determined after 48 h incubation by removing 10 µL of the contents from wells showing no visible growth and spreading them on to Sabouraud dextrose agar plates. The plates were then incubated for 72 h and MFCs were determined as the concentrations which killed 95–100% of the inoculum. […]

Candida friedrichii = experiment: microbe, parasite or virus in culture; format: cell-based
Method: (§1) Furthermore, compound 1 was evaluated for its antimicrobial activity against five bacterial isolates; S. aureus (CCM3824), B. subtilis (CCM1999), S. sanguinis (CCM4047), P. aeruginosa (CCM1959), E. coli (CCM2024), and eight fungal isolates; C. friedrichii (BCC020_2879), A. fumigatus (BCC020_2845), F. oxysporum (BCC020_2866), T. harzianum (BCC020_0606), B. sorokiniana (BCC020_1571), M. cucumerina (BCC020_2872), C. globosum (BCC020_2527), and A. alternata (BCC020_0609) using broth two-fold microdilution method following the standard protocol. Briefly, for broth microdilution method, the compounds were serially diluted at varying concentrations between 300 and 0.0732 µg/mL in Mueller Hinton broth (for bacteria) and Muller Hinton broth with 2% glucose (for fungi) in 96-well plates. Culture broth (0.1 mL) was added to each well containing the compound. Plates were incubated aerobically at 37 °C for 16 h (bacteria) and 30 °C for 48 h (for fungi). Negative controls were prepared separately with respective organisms in the same culture media with methanol (the dissolving solvent). Positive controls were also prepared separately with respective organisms. Erythromycin (32–0.0625 µg/mL) was used as positive control for S. aureus and S. sanguinis, gentamycin (32–0.0625 µg/mL) was used as positive control for Bacillus subtilis, E. coli, and P. aeruginosa, whereas fluconazole (32–0.0625 µg/mL) was used as positive control for all the fungal isolates. After incubation, the well with the least concentration of the compound showing any inhibition in the growth was taken as the MIC value for the respective organisms. MIC95 was determined as the concentration required to inhibit or kill 95% of bacterial isolates spectroscopically at 600 nm. Minimum fungicidal concentration (MFCs) were determined after 48 h incubation by removing 10 µL of the contents from wells showing no visible growth and spreading them on to Sabouraud dextrose agar plates. The plates were then incubated for 72 h and MFCs were determined as the concentrations which killed 95–100% of the inoculum. All the experiments were done in triplicate.

Fusarium oxysporum = experiment: microbe, parasite or virus in culture; format: cell-based
Method: as §1

Monographella cucumerina = experiment: microbe, parasite or virus in culture; format: cell-based
Method: as §1

C/C=C1\NC(=O)[C@H](CO)NC(=O)[C@@H]([C@@H](C)CC)NC(=O)[C@H](Cc2ccccc2)NC(=O)[C@@H]2CCCN2C(=O)CNC(=O)[C@@H](CCC(N)=O)NC(=O)C(O)C(CC(O)CCCCC)NC(=O)[C@@H]2CCCN2C(=O)[C@@H]([C@@H](C)CC)NC(=O)[C@H](CO)NC1=O (stereo partly drawn) [compound 2, muscotoxin A] (cyclo([Dhb]S[d(aIle)]P[X1][dQ]GPF[d(aIle)]S))
Partition Coefficient (K) of Muscotoxins ([1]; solvent system 1, n-Hex–EtOH–H2O 10:5:5, shake test tube, equilibrated 20 min, K = peak area upper phase/lower phase): 0.03 | Partition Coefficient (K) of Muscotoxins ([1]; solvent system 2, n-Hex–EtOAc–EtOH–H2O 9:1:5:5, shaken, 20 min, K = peak area UP/LP): 0.03 | Partition Coefficient (K) of Muscotoxins ([1]; solvent system 3, n-Hex–EtOAc–EtOH–H2O 8:2:5:5, shaken, 20 min, K = peak area UP/LP): 0.01 | Partition Coefficient (K) of Muscotoxins ([1]; solvent system 4, n-Hex–EtOAc–EtOH–H2O 7:3:5:5, shaken, 20 min, K = peak area UP/LP): 0.06 | Partition Coefficient (K) of Muscotoxins ([1]; solvent system 5, n-Hex–EtOAc–EtOH–H2O 6:4:5:5, shaken, 20 min, K = peak area UP/LP): 0.09 | Partition Coefficient (K) of Muscotoxins ([1]; solvent system 6, n-Hex–EtOAc–EtOH–H2O 5:5:5:5, shaken, 20 min, K = peak area UP/LP): 0.01 | Partition Coefficient (K) of Muscotoxins ([1]; solvent system 7, n-Hex–EtOAc–EtOH–H2O 4:5:4:5, shaken, 20 min, K = peak area UP/LP): 0.14 | Partition Coefficient (K) of Muscotoxins ([1]; solvent system 8, n-Hex–EtOAc–EtOH–H2O 3:5:3:5, shaken, 20 min, K = peak area UP/LP): 0.32 | Partition Coefficient (K) of Muscotoxins ([1]; solvent system 9, n-Hex–EtOAc–EtOH–H2O 2:5:2:5, shaken, 20 min, K = peak area UP/LP): 0.97 | Partition Coefficient (K) of Muscotoxins ([1]; solvent system 10, n-Hex–EtOAc–EtOH–H2O 1:5:1:5, shaken, 20 min, K = peak area UP/LP): 0.94 | Partition Coefficient (K) of Muscotoxins ([1]; solvent system 11, n-Hex–EtOAc–EtOH–H2O–AcOH 1:5:1:5:1, shaken, 20 min, K = peak area UP/LP): 1.97 | MIC (Bacillus subtilis): 37.5 µg/mL (≈ 31 µM) | MIC (Candida friedrichii; C. friedrichii BCC020_2879, Muller Hinton broth with 2% glucose, 300–0.0732 µg/mL (control 32–0.0625), 30 °C 48 h, triplicate, least concentration showing any inhibition): 75 µg/mL (≈ 61.9 µM) | MFC (Candida friedrichii; C. friedrichii, 10 µL from wells without visible growth after 48 h spread on Sabouraud dextrose agar, 72 h, kills 95–100% of the inoculum): <300 µg/mL | MIC (Fusarium oxysporum; F. oxysporum BCC020_2866, Muller Hinton broth with 2% glucose, 300–0.0732 µg/mL (control 32–0.0625), 30 °C 48 h, triplicate, least concentration showing any inhibition): 75 µg/mL (≈ 61.9 µM) | MFC (Fusarium oxysporum; F. oxysporum, 10 µL from wells without visible growth after 48 h spread on Sabouraud dextrose agar, 72 h, kills 95–100% of the inoculum): <300 µg/mL | MIC (Monographella cucumerina; M. cucumerina BCC020_2872, Muller Hinton broth with 2% glucose, 300–0.0732 µg/mL (control 32–0.0625), 30 °C 48 h, triplicate, least concentration showing any inhibition): 2.34 µg/mL (≈ 1.93 µM) | MFC (Monographella cucumerina; M. cucumerina, 10 µL from wells without visible growth after 48 h spread on Sabouraud dextrose agar, 72 h, kills 95–100% of the inoculum): 75 µg/mL (≈ 61.9 µM)
